According to patent publication EP4603105A1, “PHARMACEUTICAL COMPOSITION CONTAINING CYCLIC COMPOUND HAVING SELECTIVE KRAS INHIBITORY EFFECT AGAINST HRAS AND NRAS” (CHUGAI SEIYAKU KABUSHIKI KAISHA, priority 2022, dated 2024):
Where a SMILES comes first, the peptide text is derived from it. Bridges are numbered along the chain shown (N, C = ends). [ ]: non-standard residue; d: D form. The star is where a group is joined. hPhe(3,5-F2-4-CF3) = N[C@@H](CCc1cc(F)c(C(F)(F)F)c(F)c1)C(=O)O; hPhe(3-Cl-4-CF3) = N[C@@H](CCc1ccc(C(F)(F)F)c(Cl)c1)C(=O)O; NPrPhe(4-CF3) = CCCN[C@@H](Cc1ccc(C(F)(F)F)cc1)C(=O)O; NMeGly(cPent) = CN[C@H](C(=O)O)C1CCCC1; Pro(4,4-F2) = O=C(O)[C@@H]1CC(F)(F)CN1; αMeF = C[C@](N)(Cc1ccccc1)C(=O)O; NMeD = CN[C@@H](CC(=O)O)C(=O)O; NMeL = CN[C@@H](CC(C)C)C(=O)O; Morpholide = C1CN(*)CCO1; NMeA = CN[C@@H](C)C(=O)O; Ac5c = NC1(C(=O)O)CCCC1; Aze = O=C(O)[C@@H]1CCN1; Ac4c = NC1(C(=O)O)CCC1; NEtG = CCNCC(=O)O; Sar = CNCC(=O)O

Legend:
[1] = biological target: HRAS wild-type protein (Homo sapiens, UniProt P01112); experiment: Binding to HRAS by surface plasmon resonance (SPR), KD and KD ratio to KRAS
Outline: (§1)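 Measured at 30°C: SPR with GDP-loaded, E. coli-expressed biotin-Avi RAS captured (~100–300 RU), ascending 75 s compound injections, HBS pH 7.4 with GDP, MgCl2, 4% DMSO. KD from 1:1 fit.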

[2] = test system: human lung cancer strain NCI-H441; format: cell-based
Outline: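 Signal came from […] measured per well once the reagent was added. Beforehand, cells were cultured at 37°C and 5% carbon dioxide on a compound series serially diluted in dimethyl sulfoxide.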

[3] = biological target: GDP-bound NRAS wild-type protein (Homo sapiens, UniProt P01111); experiment: Binding to NRAS by surface plasmon resonance (SPR), KD and KD ratio to KRAS
Outline: as §1

[4] = ratio of the KD value with respect to HRAS wild-type protein to the KD value with respect to KRAS
[5] = ratio of the KD value with respect to GDP-bound NRAS wild-type protein to the KD value with respect to KRAS
[6] = ratio of KD for HRAS wild-type protein to KD for KRAS
[7] = ratio of KD for GDP-bound NRAS wild-type protein to KD for KRAS

GDP-bound NRAS wild-type protein, sequence (P01111 whole entry): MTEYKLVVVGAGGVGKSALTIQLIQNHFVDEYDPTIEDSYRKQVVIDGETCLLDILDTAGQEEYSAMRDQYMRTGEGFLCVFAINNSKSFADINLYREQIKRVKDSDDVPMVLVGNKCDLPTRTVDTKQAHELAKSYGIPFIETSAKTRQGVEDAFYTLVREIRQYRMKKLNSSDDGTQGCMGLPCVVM
HRAS wild-type protein, sequence (P01112 whole entry): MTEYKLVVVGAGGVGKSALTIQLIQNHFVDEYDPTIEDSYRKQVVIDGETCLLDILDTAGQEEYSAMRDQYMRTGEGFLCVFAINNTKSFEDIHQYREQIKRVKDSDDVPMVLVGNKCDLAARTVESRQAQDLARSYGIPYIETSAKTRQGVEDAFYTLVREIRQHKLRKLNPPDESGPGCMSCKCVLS

SMILES	HRAS /KRAS [1, 4]	IC50 [2] [nM]	NRAS /KRAS [3, 5]	HRAS /KRAS [1, 6]	NRAS /KRAS [3, 7]
CC[C@H](C)[C@@H]1NC(=O)[C@H](CC)N(C)C(=O)C[C@@H](C(=O)N(C)C)N(CC)C(=O)[C@H](C2CCCC2)N(C)C(=O)C2(CCC2)NC(=O)[C@@H]2CCCCN2C(=O)[C@H](CCc2cc(F)c(C(F)(F)F)c(F)c2)NC(=O)CN(C)C(=O)[C@H](Cc2ccc(C(F)(F)F)cc2)N2CCCC[C@@H](C2=O)N(C)C(=O)CN(C)C1=O [PP0661]	B (a compound having 3 or more and less than 10 is denoted as B)	56.6	C (A compound having a KD ratio of 0.1 or more and less than 3 is denoted as C)	–	–
CCCN1C(=O)CN(C)C(=O)CN(CC)C(=O)[C@H]([C@@H](C)CC)NC(=O)[C@H](CC(C)C)N(C)C(=O)C[C@@H](C(=O)N(C)C)NC(=O)[C@H](C2CCCC2)N(C)C(=O)C2(CCC2)NC(=O)[C@@H]2CC(F)(F)CN2C(=O)[C@H](CCc2ccc(C(F)(F)F)c(Cl)c2)NC(=O)CN(C)C(=O)[C@@H]1Cc1ccc(C(F)(F)F)cc1 [PP0370] ([NMeL]I[NEtG][Sar][NPrPhe(4-CF3)][Sar][hPhe(3-Cl-4-CF3)][Pro(4,4-F2)][Ac4c][NMeGly(cPent)]D-NMe2; lactam N-11)	–	63.2	–	C (A compound having a KD ratio of 0.1 or more and less than 3 is denoted as C)	B (a compound having 3 or more and less than 10 is denoted as B)
CCCN1C(=O)CN(C)C(=O)CN(C)C(=O)[C@H]([C@@H](C)CC)NC(=O)[C@H](CC(C)C)N(C)C(=O)C[C@@H](C(=O)N(C)C)N(C)C(=O)[C@H](C2CCCC2)N(C)C(=O)[C@](C)(Cc2ccccc2)NC(=O)[C@@H]2CCCN2C(=O)[C@H](CCc2cc(F)c(C(F)(F)F)c(F)c2)NC(=O)CN(C)C(=O)[C@@H]1Cc1ccc(C(F)(F)F)cc1 [PP0740] ([NMeL]I[Sar][Sar][NPrPhe(4-CF3)][Sar][hPhe(3,5-F2-4-CF3)]P[αMeF][NMeGly(cPent)][NMeD]-NMe2; lactam N-11)	C (A compound having a KD ratio of 0.1 or more and less than 3 is denoted as C)	51.2	B (a compound having 3 or more and less than 10 is denoted as B)	–	–
CCC(CC)[C@H]1C(=O)N(C)[C@H](C(=O)N(C)C)CC(=O)N(C)[C@@H](COC)C(=O)N[C@@H]([C@@H](C)CC)C(=O)N(C)CC(=O)N(C)[C@H]2C/C=C\CCN(C2=O)[C@@H](Cc2ccc(C(F)(F)F)cc2)C(=O)N(C)CC(=O)N[C@@H](CCc2cc(F)c(C(F)(F)F)c(F)c2)C(=O)N2CCCCC[C@H]2C(=O)NC2(CC(C)(C)C2)C(=O)N1C [PP3030]	–	22.4	–	A (a compound having 10 or more and less than 20 is denoted as A)	AA (a compound having 20 or more is denoted as AA)
C#CC[C@H]1C(=O)N[C@@H]([C@@H](C)CC)C(=O)N(C)CC(=O)N(C)[C@H]2C/C=C\CCN(C2=O)[C@@H](Cc2ccc(C(F)(F)F)cc2)C(=O)N(C)CC(=O)N[C@@H](CCc2ccc(C(F)(F)F)c(Cl)c2)C(=O)N2C[C@H](OCC)C[C@H]2C(=O)NC2(CC(C)(C)C2)C(=O)N(C)[C@@H](C2CCCC2)C(=O)N(C)[C@H](C(=O)N(C)CC)CC(=O)N1C [PP2844]	–	7.6	–	A (a compound having 10 or more and less than 20 is denoted as A)	A (a compound having 10 or more and less than 20 is denoted as A)
CCCN1C(=O)[C@@H]2CCN2C(=O)[C@H](C)N(C)C(=O)[C@H]([C@@H](C)CC)NC(=O)[C@H](CC(C)C)N(C)C(=O)C[C@@H](C(=O)N2CCOCC2)NC(=O)[C@H](C2CCCC2)N(C)C(=O)C2(CCCC2)NC(=O)[C@@H]2CCCN2C(=O)[C@H](CCc2ccc(C(F)(F)F)c(Cl)c2)NC(=O)CN(C)C(=O)[C@@H]1Cc1ccc(C(F)(F)F)cc1 [PP0343] ([NMeL]I[NMeA][Aze][NPrPhe(4-CF3)][Sar][hPhe(3-Cl-4-CF3)]P[Ac5c][NMeGly(cPent)]D-Morpholide; lactam N-11)	–	47.6	–	B (a compound having 3 or more and less than 10 is denoted as B)	C (A compound having a KD ratio of 0.1 or more and less than 3 is denoted as C)
